Tests used:
Assay in all cases: relative viability (nuclei count vs DMSO), 5 days (fraction); higher = more cells survive
HARA = test system: HARA
How it was run: (§1)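 Cells from lung cancer lines were seeded into 1536-well plates and, one day later, dosed by pin tool. Treatments were either a single drug or a fixed dose of an anchor drug with five library-drug doses (not always all listed) in √10 steps. After 5 days, nuclei were stained in a one-step fixation (final 0.05% Triton X-100, 1% formaldehyde, 1 ug/ml Hoechst) and counted on 4× images, and relative viability is the treated-to-vehicle nuclei ratio, as the median of duplicate plates.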

H3255 = test system: H3255
How it was run: as §1

LC-2-ad = test system: LC-2-ad
How it was run: as §1

PC-3 [JPC-3] = test system: PC-3 [JPC-3]
How it was run: as §1

NCI-H441 = test system: NCI-H441
How it was run: as §1

NCI-H460 = test system: NCI-H460
How it was run: as §1

HCC-15 = test system: HCC-15
How it was run: as §1

NCI-H1437 = test system: NCI-H1437
How it was run: as §1

SK-LU-1 = test system: SK-LU-1
How it was run: as §1

LCLC-97TM1 = test system: LCLC-97TM1
How it was run: as §1

LU99A = test system: LU99A
How it was run: as §1

NCI-H1915 = test system: NCI-H1915
How it was run: as §1

NCI-H661 = test system: NCI-H661
How it was run: as §1

NCI-H2126 = test system: NCI-H2126
How it was run: as §1

EMC-BAC-2 = test system: EMC-BAC-2
How it was run: as §1

ChaGo-K-1 = test system: ChaGo-K-1
How it was run: as §1

NCI-H1792 = test system: NCI-H1792
How it was run: as §1

NCI-H1793 = test system: NCI-H1793
How it was run: as §1

HCC-827 = test system: HCC-827
How it was run: as §1

NCI-H1944 = test system: NCI-H1944
How it was run: as §1

NCI-H322M = test system: NCI-H322M
How it was run: as §1

NCI-H23 = test system: NCI-H23
How it was run: as §1

EKVX = test system: EKVX
How it was run: as §1

**Q.** Which results are given for `O=c1[nH]c2ccccc2n1C1CCN(CCCC(c2ccc(F)cc2)c2ccc(F)cc2)CC1` [Pimozide] + Nc1nc2[nH]cc(CCc3ccc(C(=O)N[C@@H](CCC(=O)O)C(=O)O)cc3)c2c(=O)[nH]1 [Pemetrexed] (partner 0.2 µM)?
**A.** relative viability (HARA; first compound 0.08 µM): 0.245; relative viability (HARA; first compound 0.253 µM): 0.262; relative viability (HARA; first compound 0.8 µM): 0.241; relative viability (HARA; first compound 2.53 µM): 0.282; relative viability (HARA; first compound 8 µM): 0.198; relative viability (H3255; first compound 0.253 µM): 0.53; relative viability (H3255; first compound 0.8 µM): 0.503; relative viability (H3255; first compound 2.53 µM): 0.519; relative viability (H3255; first compound 8 µM): 0.578; relative viability (LC-2-ad; first compound 0.08 µM): 0.275; relative viability (LC-2-ad; first compound 0.253 µM): 0.288; relative viability (LC-2-ad; first compound 0.8 µM): 0.259; relative viability (LC-2-ad; first compound 2.53 µM): 0.265; relative viability (LC-2-ad; first compound 8 µM): 0.254; relative viability (PC-3 [JPC-3]; first compound 0.253 µM): 1.08; relative viability (PC-3 [JPC-3]; first compound 0.8 µM): 1.04; relative viability (PC-3 [JPC-3]; first compound 2.53 µM): 1.08; relative viability (PC-3 [JPC-3]; first compound 8 µM): 0.985; relative viability (NCI-H441; first compound 0.08 µM): 0.27; relative viability (NCI-H441; first compound 0.253 µM): 0.314; relative viability (NCI-H441; first compound 0.8 µM): 0.276; relative viability (NCI-H441; first compound 2.53 µM): 0.265; relative viability (NCI-H441; first compound 8 µM): 0.238; relative viability (NCI-H460; first compound 0.08 µM): 0.05; relative viability (NCI-H460; first compound 0.253 µM): 0.0643; relative viability (NCI-H460; first compound 0.8 µM): 0.0627; relative viability (NCI-H460; first compound 2.53 µM): 0.0654; relative viability (NCI-H460; first compound 8 µM): 0.0685; relative viability (HCC-15; first compound 0.08 µM): 0.229; relative viability (HCC-15; first compound 0.253 µM): 0.226; relative viability (HCC-15; first compound 0.8 µM): 0.221; relative viability (HCC-15; first compound 2.53 µM): 0.213; relative viability (HCC-15; first compound 8 µM): 0.205; relative viability (NCI-H1437; first compound 0.08 µM): 0.354; relative viability (NCI-H1437; first compound 0.253 µM): 0.306; relative viability (NCI-H1437; first compound 0.8 µM): 0.274; relative viability (NCI-H1437; first compound 2.53 µM): 0.312; relative viability (NCI-H1437; first compound 8 µM): 0.219; relative viability (SK-LU-1; first compound 0.08 µM): 1.05; relative viability (SK-LU-1; first compound 0.253 µM): 0.991; relative viability (SK-LU-1; first compound 0.8 µM): 0.897; relative viability (SK-LU-1; first compound 2.53 µM): 0.853; relative viability (SK-LU-1; first compound 8 µM): 0.817; relative viability (LCLC-97TM1; first compound 0.08 µM): 0.2; relative viability (LCLC-97TM1; first compound 0.253 µM): 0.177; relative viability (LCLC-97TM1; first compound 0.8 µM): 0.19; relative viability (LCLC-97TM1; first compound 2.53 µM): 0.18; relative viability (LCLC-97TM1; first compound 8 µM): 0.156; relative viability (LU99A; first compound 0.08 µM): 0.277; relative viability (LU99A; first compound 0.8 µM): 0.179; relative viability (LU99A; first compound 2.53 µM): 0.185; relative viability (LU99A; first compound 8 µM): 0.191; relative viability (NCI-H1915; first compound 0.08 µM): 0.482; relative viability (NCI-H1915; first compound 0.253 µM): 0.415; relative viability (NCI-H1915; first compound 2.53 µM): 0.448; relative viability (NCI-H1915; first compound 8 µM): 0.423; relative viability (NCI-H661; first compound 0.08 µM): 0.914; relative viability (NCI-H661; first compound 0.253 µM): 0.898; relative viability (NCI-H661; first compound 0.8 µM): 0.844; relative viability (NCI-H661; first compound 2.53 µM): 0.877; relative viability (NCI-H661; first compound 8 µM): 0.797; relative viability (NCI-H2126; first compound 0.08 µM): 0.65; relative viability (NCI-H2126; first compound 0.253 µM): 0.659; relative viability (NCI-H2126; first compound 0.8 µM): 0.637; relative viability (NCI-H2126; first compound 2.53 µM): 0.659; relative viability (NCI-H2126; first compound 8 µM): 0.652; relative viability (EMC-BAC-2; first compound 0.08 µM): 0.464; relative viability (EMC-BAC-2; first compound 0.253 µM): 0.462; relative viability (EMC-BAC-2; first compound 0.8 µM): 0.392; relative viability (EMC-BAC-2; first compound 2.53 µM): 0.428; relative viability (EMC-BAC-2; first compound 8 µM): 0.438; relative viability (ChaGo-K-1; first compound 0.08 µM): 0.248; relative viability (ChaGo-K-1; first compound 0.253 µM): 0.277; relative viability (ChaGo-K-1; first compound 0.8 µM): 0.245; relative viability (ChaGo-K-1; first compound 2.53 µM): 0.267; relative viability (ChaGo-K-1; first compound 8 µM): 0.254; relative viability (NCI-H1792; first compound 0.08 µM): 0.822; relative viability (NCI-H1792; first compound 0.253 µM): 0.786; relative viability (NCI-H1792; first compound 0.8 µM): 0.43; relative viability (NCI-H1792; first compound 2.53 µM): 0.727; relative viability (NCI-H1792; first compound 8 µM): 0.356; relative viability (NCI-H1793; first compound 0.08 µM): 0.807; relative viability (NCI-H1793; first compound 0.253 µM): 0.798; relative viability (NCI-H1793; first compound 0.8 µM): 0.8; relative viability (NCI-H1793; first compound 2.53 µM): 0.829; relative viability (NCI-H1793; first compound 8 µM): 0.676; relative viability (HCC-827; first compound 0.253 µM): 0.228; relative viability (HCC-827; first compound 0.8 µM): 0.258; relative viability (HCC-827; first compound 2.53 µM): 0.289; relative viability (HCC-827; first compound 8 µM): 0.254; relative viability (NCI-H1944; first compound 0.08 µM): 0.68; relative viability (NCI-H1944; first compound 2.53 µM): 0.466; relative viability (NCI-H1944; first compound 8 µM): 0.512; relative viability (NCI-H322M; first compound 0.08 µM): 0.571; relative viability (NCI-H322M; first compound 0.253 µM): 0.668; relative viability (NCI-H322M; first compound 0.8 µM): 0.622; relative viability (NCI-H322M; first compound 2.53 µM): 0.604; relative viability (NCI-H322M; first compound 8 µM): 0.609; relative viability (NCI-H23; first compound 0.08 µM): 0.64; relative viability (NCI-H23; first compound 0.253 µM): 0.716; relative viability (NCI-H23; first compound 0.8 µM): 0.609; relative viability (NCI-H23; first compound 2.53 µM): 0.59; relative viability (NCI-H23; first compound 8 µM): 0.591; relative viability (EKVX; first compound 0.253 µM): 0.336; relative viability (EKVX; first compound 0.8 µM): 0.362; relative viability (EKVX; first compound 2.53 µM): 0.397; relative viability (EKVX; first compound 8 µM): 0.412

Source: the supplement of paper PMC10307832
